According to article PMC12655172, “Borylated 5-Membered Ring Iminosugars: Synthesis and Biological Evaluation for Glycosidase Inhibition and Anticancer Properties for Application in Boron Neutron Capture Therapy (BNCT)—Part 2” (Pharmaceuticals, 2025):

Tests used:
[1] = system: MCF10A (non-tumour derived normal breast cell line); experiment: Cancer screening, MTT growth inhibition; format: cell-based; details: Homo sapiens, MCF-10A, 72 h; for inhibition at 25 µM: 25 µM of drug, read-out: DOSE SCREEN percentage (%) cell growth inhibition MCF10A Breast (normal); for GI50: read-out: DOSE RESPONSE GI50 MCF10A Breast (normal)
[2] = system: A2780 (ovarian carcinoma); experiment: Cancer screening, MTT growth inhibition; format: cell-based; details: Homo sapiens; for inhibition at 25 µM: A2780, 25 µM of drug, 72 h, read-out: DOSE SCREEN percentage (%) cell growth inhibition A2780 Ovarian; for GI50: A2780, 72 h, read-out: DOSE RESPONSE GI50 A2780 Ovarian
Description: (§1) For Table 4, all test agents were prepared as stock solutions ([…]) in dimethyl sulfoxide (DMSO) and stored at −20 °C. Cell lines used in the study included HT29 (colorectal carcinoma), A2780 (ovarian carcinoma), H460 (lung carcinoma), A431 (skin carcinoma), MiaPaCa-2 (pancreatic carcinoma), and SMA560 (spontaneous murine astrocytoma), together with MCF10A (non-tumour derived normal breast cell line). Cell line sources: the HT29, H460, and MiaPaCa-2, together with MCF10A were purchased from ATCC. The A2780 and A431 were purchased from the European Collection of Cell Culture (ECACC). All cell lines were incubated in a humidified atmosphere 5% CO2 at 37 °C. The cancer cell lines were maintained in Dulbecco’s modified Eagle’s medium (DMEM; Sigma, Truganina, Australia) supplemented with foetal bovine serum (10%), sodium pyruvate ([…]), penicillin (100 IUmL^−1), streptomycin (100 µg mL^−1), and L-glutamine ([…]).
(§2) Growth inhibition was determined by plating cells in duplicate in medium (100 µL) at a density of 2500–4000 cells per well in 96-well plates. On day 0 (24 h after plating), when the cells are in logarithmic growth, medium (100 µL) with or without the test agent was added to each well. […] Each data point is the mean ± the standard error of the mean (SEM) calculated from three replicates which were performed on separate occasions and separate cell line passages.

A431 (skin carcinoma) = experiment: Cancer screening, MTT growth inhibition; format: cell-based; details: Homo sapiens; for inhibition at 25 µM: A-431, 25 µM of drug, 72 h, read-out: DOSE SCREEN percentage (%) cell growth inhibition A431 Skin; for GI50: A-431, 72 h, read-out: DOSE RESPONSE GI50 A431 Skin
Description: as §1, §2

H460 (lung carcinoma) = experiment: Cancer screening, MTT growth inhibition; format: cell-based; details: Homo sapiens; for inhibition at 25 µM: NCI-H460, 25 µM of drug, 72 h, read-out: DOSE SCREEN percentage (%) cell growth inhibition H460 Lung; for GI50: NCI-H460, 72 h, read-out: DOSE RESPONSE GI50 H460 Lung
Description: as §1, §2

[3] = system: HT29 (colorectal carcinoma); experiment: Cancer screening, MTT growth inhibition; format: cell-based; details: Homo sapiens; for inhibition at 25 µM: HT-29, 25 µM of drug, 72 h, read-out: DOSE SCREEN percentage (%) cell growth inhibition HT29 Colon; for GI50: HT-29, 72 h, read-out: DOSE RESPONSE GI50 HT29 Colon
Description: as §1, §2

[4] = system: MIA-Pa-Ca2 (pancreatic carcinoma); experiment: Cancer screening, MTT growth inhibition; format: cell-based; details: Homo sapiens; for inhibition at 25 µM: MIA PaCa-2, 25 µM of drug, 72 h, read-out: DOSE SCREEN percentage (%) cell growth inhibition MIA-Pa-Ca2 Pancreatic; for GI50: MIA PaCa-2, 72 h, read-out: DOSE RESPONSE GI50 MIA-Pa-Ca2 Pancreatic
Description: as §1, §2

[5] = Sample appearance on sample preparation in water; format: physicochemical; details: 1 mL of water was added to 1 mg solid
α-D-glucosidase (rice) = α-D-glucosidase (rice) (Oryza sativa subsp. japonica, UniProt Q653V7); experiment: Glycosidase inhibition (Table 2 panel); format: biochemical
Source text: (§3) The enzymes α-D-glucosidase (yeast), β-D-glucosidases (almond, bovine liver), α-D-galactosidase (coffee beans), β-D-galactosidase (bovine liver), α-D-mannosidase (Jack bean), β-D-mannosidase (snail), α-L-rhamnosidase (P. decumbens), α-L-fucosidase (bovine kidney), trehalase (porcine kidney), β-D-glucuronidases (E. coli, bovine liver), amyloglucosidase (A. niger), para-nitrophenyl glycosides, and various disaccharides were purchased from Sigma-Aldrich Co (St. Louis, MO, USA).
(§4) Brush border membranes were prepared from the rat small intestine according to the method of Kessler et al., and were assayed at pH 6.8 for rat intestinal maltase using maltose. For rat intestinal maltase, porcine kidney trehalase, and A. niger amyloglucosidase activities, the reaction mixture contained maltose ([…]) and the appropriate amount of enzyme, and the incubations were performed for 10–30 min at 37 °C. The reaction was stopped by heating at 100 °C for 3 min. After centrifugation (600 g; 10 min), the resulting reaction mixture was added to the Glucose CII-test Wako (Wako Pure Chemical Ind., Osaka, Japan). The absorbance at 505 nm was measured to determine the amount of the released D-glucose. Other glycosidase activities were determined using an appropriate para-nitrophenyl glycoside as substrate at the optimum pH of each enzyme. The reaction mixture contained the substrate ([…]) and the appropriate amount of enzyme. The reaction was stopped by the addition of Na2CO3 ([…]). The released para-nitrophenol was measured spectrometrically at 400 nm. All reactions were run in […].

[6] = system: α-D-glucosidase (rat intestinal maltase); experiment: Glycosidase inhibition (Table 2 panel); format: biochemical
Source text: as §3, §4

[7] = molecular target: T1, β-D-glucosidase (bovine liver) (Bos taurus, UniProt F1MNT6); experiment: Glycosidase inhibition (Table 2 panel); format: biochemical
T1 sequence (F1MNT6 1-469): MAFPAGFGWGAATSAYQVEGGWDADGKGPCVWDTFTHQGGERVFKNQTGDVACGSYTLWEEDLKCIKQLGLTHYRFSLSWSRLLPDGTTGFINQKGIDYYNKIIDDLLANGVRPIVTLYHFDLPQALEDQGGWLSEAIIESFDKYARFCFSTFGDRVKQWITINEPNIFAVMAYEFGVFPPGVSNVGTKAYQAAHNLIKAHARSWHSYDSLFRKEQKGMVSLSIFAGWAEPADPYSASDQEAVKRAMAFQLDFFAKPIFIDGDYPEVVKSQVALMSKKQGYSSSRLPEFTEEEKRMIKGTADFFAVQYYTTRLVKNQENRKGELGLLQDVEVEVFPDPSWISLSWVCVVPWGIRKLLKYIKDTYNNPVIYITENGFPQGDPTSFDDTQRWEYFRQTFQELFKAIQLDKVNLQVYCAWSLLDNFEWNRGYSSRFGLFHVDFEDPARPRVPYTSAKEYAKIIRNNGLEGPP
Source text: as §3, §4

[8] = system: T2, trehalase (porcine kidney); experiment: Glycosidase inhibition (Table 2 panel); format: biochemical
T2 construct: purchased Sigma-Aldrich; host or cells: porcine kidney
Source text: as §3, §4

[9] = system: T3, α-D-galactosidase (coffee beans); experiment: Glycosidase inhibition (Table 2 panel); format: biochemical
T3 construct: purchased Sigma-Aldrich; host or cells: coffee beans
Source text: as §3, §4

β-D-mannosidase (snail) = experiment: Glycosidase inhibition (Table 2 panel); format: biochemical
Source text: as §3, §4

β-D-glucosidase (almond) = experiment: Glycosidase inhibition (Table 2 panel); format: biochemical
Source text: as §3, §4

[10] = system: α-L-rhamnosidase (P. decumbens); experiment: Glycosidase inhibition (Table 2 panel); format: biochemical
Source text: as §3, §4

α-D-glucosidase (rice), sequence (Q653V7 34-885): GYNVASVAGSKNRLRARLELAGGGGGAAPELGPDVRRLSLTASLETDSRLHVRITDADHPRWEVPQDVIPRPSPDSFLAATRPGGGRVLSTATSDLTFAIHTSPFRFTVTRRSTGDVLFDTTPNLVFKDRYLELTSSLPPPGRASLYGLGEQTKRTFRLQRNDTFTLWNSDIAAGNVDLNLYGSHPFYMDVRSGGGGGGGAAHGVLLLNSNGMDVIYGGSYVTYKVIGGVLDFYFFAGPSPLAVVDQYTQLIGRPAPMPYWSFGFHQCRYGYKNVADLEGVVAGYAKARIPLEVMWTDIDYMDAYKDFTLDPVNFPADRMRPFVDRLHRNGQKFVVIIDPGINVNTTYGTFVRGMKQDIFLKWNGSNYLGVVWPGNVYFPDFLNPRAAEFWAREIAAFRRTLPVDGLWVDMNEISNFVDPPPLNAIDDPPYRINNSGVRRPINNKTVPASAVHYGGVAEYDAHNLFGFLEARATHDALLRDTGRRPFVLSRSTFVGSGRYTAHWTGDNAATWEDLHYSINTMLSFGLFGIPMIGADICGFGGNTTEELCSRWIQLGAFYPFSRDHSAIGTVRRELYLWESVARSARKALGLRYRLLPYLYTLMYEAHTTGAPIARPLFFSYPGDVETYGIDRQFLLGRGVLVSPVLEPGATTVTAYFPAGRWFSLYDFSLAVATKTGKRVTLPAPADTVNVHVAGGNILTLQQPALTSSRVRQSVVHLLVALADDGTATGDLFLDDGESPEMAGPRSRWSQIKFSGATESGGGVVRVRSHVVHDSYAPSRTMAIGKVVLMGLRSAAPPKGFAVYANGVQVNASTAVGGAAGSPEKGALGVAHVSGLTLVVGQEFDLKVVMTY

SMILES	inhibition at 25 µM [1] [%]	GI50 [1] [µM]	inhibition at 25 µM [2] [%]	GI50 [2] [µM]	inhibition at 25 µM (A431 (skin carcinoma)) [%]	GI50 (A431 (skin carcinoma)) [µM]	inhibition at 25 µM (H460 (lung carcinoma)) [%]	GI50 (H460 (lung carcinoma)) [µM]	inhibition at 25 µM [3] [%]	GI50 [3] [µM]	inhibition at 25 µM [4] [%]	GI50 [4] [µM]	Sample Appearance [5]	inhibition at 100 µM (α-D-glucosidase (rice)) [%]	inhibition % α-D-Glucosidase Rat Intestinal Maltase ([6]; at 100 μM)	inhibition at 100 µM [7] [%]	inhibition % Trehalase Porcine Kidney ([8]; at 100 μM)	inhibition % α-D-Galactosidase Coffee Beans ([9]; at 100 μM)	inhibition % β-D-Mannosidase Snail (β-D-mannosidase (snail); at 100 μM)	inhibition % β-D-Glucosidase Almond (β-D-glucosidase (almond); at 100 μM)	further results
CC1(C)O[C@H]2O[C@H]3[C@@H]([C@H]2O1)N(Cc1cccc(B(O)O)c1)C[C@H]3O [meta 5, N-(3-Methylphenylboronic acid)-3,6-dideoxy-3,6-imino-1,2-O-isopropylidene-α-D-glucofuranose]	7 ± 4	> 50	32 ± 7	> 50	8 ± 8	> 50	10 ± 2	> 50	< 0	> 50	16 ± 1	> 50	In solution	0	^cNI ^d(0%)	23	^cNI ^d(0%)	^cNI ^d(1.5%)	^cNI ^d(2.3%)	^cNI ^d(0%)	inhibition % α-L-Rhamnosidase P. decumbens ([10]; at 100 μM): ^cNI ^d(0.6%)
CC1(C)O[C@H]2O[C@H]3[C@@H]([C@H]2O1)N(Cc1cccc(B2OC(C)(C)C(C)(C)O2)c1)C[C@H]3O [meta 2, N-(3-Methylphenylboronic acid pinacol ester)-3,6-dideoxy-3,6-imino-1,2-O-isopropylidene-α-D-gulofuranose]	6 ± 4	> 50	25 ± 2	> 50	8 ± 6	> 50	5 ± 2	> 50	1 ± 10	> 50	19 ± 8	> 50	In solution	0	^cNI ^d(5.8%)	0	^cNI ^d(0%)	^cNI ^d(0%)	^cNI ^d(8.4%)	^cNI ^d(6.8%)	inhibition at 1000 µM (α-D-glucosidase (rice); at 1000 μM): 2.9%; inhibition % α-D-Glucosidase Rat Intestinal Maltase ([6]; at 1000 μM): ^aNI ^b(12.4%); inhibition at 1000 µM ([7]; at 1000 μM): 32.7%; inhibition % Trehalase Porcine Kidney ([8]; at 1000 μM): ^aNI ^b(5.8%); inhibition % α-D-Galactosidase Coffee Beans ([9]; at 1000 μM): ^aNI ^b(0%); inhibition % β-D-Mannosidase Snail (β-D-mannosidase (snail); at 1000 μM): ^aNI ^b(3.7%); inhibition % β-D-Glucosidase Almond (β-D-glucosidase (almond); at 1000 μM): ^aNI ^b(12.6%); inhibition % α-L-Rhamnosidase P. decumbens ([10]; at 100 μM): ^cNI ^d(1.5%); inhibition % α-L-Rhamnosidase P. decumbens ([10]; at 1000 μM): ^aNI ^b(0%)
CC1(C)O[C@H]2O[C@H]3[C@@H]([C@H]2O1)N(Cc1ccccc1B(O)O)C[C@H]3O [ortho 5]	7 ± 6	> 50	19 ± 2	> 50	9 ± 4	> 50	2 ± 2	> 50	4 ± 4	> 50	12 ± 3	> 50	In solution	6.7	^cNI ^d(0%)	13.4	^cNI ^d(4.9%)	^cNI ^d(8.5%)	^cNI ^d(7.0%)	^cNI ^d(2.7%)	inhibition % α-L-Rhamnosidase P. decumbens ([10]; at 100 μM): ^cNI ^d(0%)
